Source: patent US20060100155A1, “Method for the therapeutic management of endometriosis” (priority 1999, published 2006)
Non-standard residues stand in square brackets, D forms with d. Residues, ends and D or L forms follow the SMILES beside them. dPhe(4-Cl) = N[C@H](Cc1ccc(Cl)cc1)C(=O)O; d2Nal = N[C@H](Cc1ccc2ccccc2c1)C(=O)O; dCit = NC(=O)NCCC[C@@H](N)C(=O)O; d3Pal = N[C@H](Cc1cccnc1)C(=O)O

System: patients with confirmed endometriosis
Assay: Weekly s.c. administration of 3 mg LHRH antagonist for 8 weeks to patients with confirmed endometriosis
Assay type: in vivo, human
Details: for hot flushes or other (estradiol) withdrawal symptoms / proliferation of the endometrium (histological biopsies): 3 mg weekly for 8 weeks; for proliferation of the endometrium (histological biopsies): at the end of treatment
Protocol: The weekly administration of an adequate dose of an LHRH antagonist, e.g. 3 mg Cetrotide® s.c./per week over a period of eight weeks leads to a controlled suppression of estrogen secretion so that serum concentrations between about 35 pg/ml and about 80 pg/ml, preferably between about 45-75 pg/ml, more preferably between about 50-75 pg/ml are obtained. […] Also the development of osteoporosis can be avoided.

CC(=O)N[C@H](Cc1ccc2ccccc2c1)C(=O)N[C@H](Cc1ccc(Cl)cc1)C(=O)N[C@H](Cc1cccnc1)C(=O)N[C@@H](CO)C(=O)N[C@@H](Cc1ccc(O)cc1)C(=O)N[C@H](CCCNC(N)=O)C(=O)N[C@@H](CC(C)C)C(=O)N[C@@H](CCCNC(=N)N)C(=O)N1CCC[C@H]1C(=O)N[C@H](C)C(N)=O [Cetrorelix acetate] (Ac-[d2Nal][dPhe(4-Cl)][d3Pal]SY[dCit]LRP[dA]-NH2)
ovarian cyst formation (3 mg s.c. weekly for 8 weeks): No ovarian cyst formation occurred | progress of the disease confirmed by 2nd look laparascopy (3 mg s.c. weekly for 8 weeks): without any progress of the disease | hot flushes or other (estradiol) withdrawal symptoms: avoiding any hot flushes or other withdrawal symptoms | proliferation of the endometrium (histological biopsies): no proliferation of the endometrium | proliferation of the endometrium (histological biopsies) (listed as Cetrorelix): without proliferation of the endometrium | hot flushes or other (estradiol) withdrawal symptoms (listed as Cetrorelix): without any signs of estradiol withdrawal symptoms
